Experimental data published in patent publication US20250263404A1, “AMINOPYRIDINES AS ACTIVATORS OF PI3 KINASE” (UCL Business Ltd, priority 2021, published 2025).

How the values were obtained:
[1] = system: pAKT^S473 in mouse embryonic fibroblasts (MEFs); experiment: pAKT S473 by Wes western blotting in MEFs; format: cell-based
Source text: The inventors next monitored the activation of AKT, the best-known PI3K effector stimulated by PIP3/PI(3,4)P2 production in cells. […] As previously reported, PI3Kα-null MEFs still respond to insulin, but now in a PI3Kβ-dependent manner, as shown by sensitivity of insulin-stimulated pAKT^S473 to the PI3Kβ-selective inhibitor TGX-221 (FIG. 3b). […] Similar observations were made for mTORC1 pathway activation, as measured by S6 (Ser240/44) and 4EBP1 (Ser65) phosphorylation (FIG. 3e). […] Experiments with A549 cells and MEFs were performed separately using slightly different protocols. Briefly, A549 cells were seeded at 200,000 cells per well in 24-well plates in DMEM (10% FBS+1% P/S) and allowed to adhere overnight. The next day, cells were washed once with PBS before addition of serum-free DMEM for 24 h. On the day of treatment, cells were incubated in fresh serum-free DMEM prior to treatment. […]

[2] = system: PI3Kα-WT and PI3Kα-KO MEFs; experiment: Mass spectrometry-based phosphoproteomics in MEFs; format: cell-based, mouse; settings: for differentially phosphorylated peptides/sites: PI3Kα-WT MEFs
Procedure: The inventors next investigated the impact of 1938 on cell signalling in an unbiased manner using phosphoproteomics. […] The inventors quantified 10,611 phosphosites from 3,093 proteins of which 9100, 1420 and 91 were pSer, pThr and pTyr residues, respectively (FIG. 16/Extended Data FIG. 8a). […] Compared to vehicle-treated cells, insulin treatment of PI3Kα-WT MEFs induced differential phosphorylation of 11 and 18 sites at 15 min and 4 h, respectively (FIG. 16/Extended Data FIG. 8c). […] Furthermore, approximately half of the 1938-controlled phosphosites have been previously reported (in PhosphoSitePlus) to be regulated by insulin, IGF-1, PI3K inhibition or AKT inhibition, with some linked to regulation by mTOR or PDK1 (FIG. 3gi,ii).
PI3Kα-WT and PI3Kα-KO MEFs, grown in 15 cm dishes, were serum-starved overnight in DMEM with 1% penicillin-streptomycin and stimulated by the addition of 0.05% DMSO, […] 1938 in final 0.05% DMSO or 100 nM insulin (Sigma, 15016) for 15 min or 4 h. Cells were lysed in […] urea lysis buffer [50 mM triethylammonium bicarbonate, 8 M urea, cOmplete™, EDTA-free protease inhibitor cocktail (1:50 dilution) (Roche, 11873580001), 1 PhosSTOP tablet (Roche, 4906845001), 1 mM sodium orthovanadate] and lysates sonicated until clear for ˜10 min with cooling breaks on ice. Protein concentration was measured using a BCA protein assay (Pierce #23227). 300 μg of protein was reduced with 5 mM Tris(2-carboxyethyl)phosphine hydrochloride (Sigma, C4706) at 37° C. for 20 min and alkylated using 10 mM 2-chloroacetamide (Sigma, 22790) for 20 min at room temperature in the dark. Proteins were digested with LysC for 3.5 h at 30° C. […] Fifty percent of each sample was analysed as 10 μl injections. […] Precursor ions were measured in a data-dependent mode in the orbitrap analyser at a resolution of 70,000 and a target value of 3e6 ions. The ten most intense ions from each MS1 scan were isolated, fragmented in the HCD cell, and measured in the Orbitrap at a resolution of 17,500. […]

`CCN1CCN(c2ccc(Nc3cc(Nc4cccc5c4N(C(C)=O)CC5)ccn3)cc2)CC1` [Example 1938] was tested, and the EC50 ([1]; Mus musculus, Fibroblast, 0.25 h, read-out: EC50 for induction of pAKT, MEFs, 15 min treatment) was 2 to 4 µM, the “pAKT^S473 in PI3Kα-null MEFs” value ([1]; PI3Kα-null MEFs, 15 min) was “no pAKT^S473 phosphorylation was observed” and the “signalling impact in PI3Kα-KO MEFs” value ([2]; PI3Kα-KO MEFs) was “little signalling impact”. The differentially phosphorylated peptides/sites ([2]; 15 min treatment) was 27 and the differentially phosphorylated peptides/sites ([2]; 4 h treatment) was 50.
